Patent US20210292807A1, “METHOD FOR TESTING ANTIMICROBIAL SUSCEPTIBILITY” (priority 2017, published 2021)
In brackets after ≈: the same amount, converted by molar mass.

Columns and labels:
Klebsiella isolates [1] = test: Broth microdilution MIC (MICBMD) of Klebsiella isolates; type: cell-based, Klebsiella pneumoniae, Klebsiella oxytoca; settings: limited clinical screen concentrations
Experimental: (§1) An aliquot of bacterial suspension was added to 50 mL centrifuge tubes (Corning, N.Y.) containing 9 mL of pre-warmed (37° C.) filtered MHB to produce a final density of 5×10^5-1×10^6 bacteria per mL. This suspension was incubated at 37° C. with shaking at 100 RPM for 30 minutes to obtain an actively dividing culture. An aliquot of antibiotic working solution from the previously described dilution series (appropriate to the concentration tested) was then added to each tube before a further 30-minute incubation with shaking, during which time a microbroth dilution (MBD) plate was prepared for overnight incubation at 37° C. as previously described in Clinical and Laboratory Standards Institute (2015) Performance Standards for Antimicrobial Susceptibility Testing: Informational Supplement. CLSI document M100-S25. Clinical and Laboratory Standards Institute, 950, West Valley Road, Suite 2500, Wayne, Pa., 19087, USA.
FIG. 2 outlines the work flow as exemplified herein. In brief, an isolate was retrieved from cryopreservation, plated onto blood agar to ensure purity, and inoculated into trypticase soy broth (TSB, described above) overnight to simulate biological fluids. A 1 mL aliquot of this overnight suspension was inoculated into Mueller-Hinton broth (MHB) [comprising about 300.0 g beef extract (dehydrated infusion from), about 17.5 g casein hydrolysate, about 1.5 g starch, reconstituted in about 1 L of water, pH 7.3±0.1 as measured and kept at 25° C.] and incubated at 37° C. to ensure bacteria were actively dividing. One aliquot was subjected to traditional microbroth dilution (MBD) susceptibility testing.

Klebsiella isolates [2] = test: Acoustic flow cytometry-assisted susceptibility test (FAST), MICFAST and S/NS, Klebsiella isolates; type: cell-based, Klebsiella pneumoniae, Klebsiella oxytoca; settings: limited clinical screen concentrations
Experimental: A 1 mL aliquot of bacterial suspension was centrifuged, washed and resuspended in 1 mL filtered Hank's Buffered Salt Solution (HBSS; comprising about 0.137 M NaCl, about 5.4 mM KCl, about 0.25 mM Na2HPO4, about 0.1 g Glucose, about 0.44 mM KH2PO4, 1.3 mM CaCl2), 1.0 mM MgSO4, about 1.3 mM CaCl2), 1.0 mM MgSO4, and about 4.2 mM NaHCO3) and diluted in series (e.g., in a 1:10 serial dilution) to a final 1:1000 dilution.
One μL (microliter) of SYTO 9 stain (e.g., ThermoFisher Scientific) working stock solution was added to the final dilution at a final concentration of 5 μM and incubated for 5 minutes before counting bacterial events by acoustic flow cytometer (AFC) (Attune, ThermoFisher, Eugene, Oreg., USA), which was used to prepare a standardised inoculum density for susceptibility testing.
as §1
One millilitre of bacterial suspension from each antibiotic concentration was harvested by centrifugation at 7800×g for 5 minutes, washed and diluted 1:10 in filtered HBSS in a light-impermeable microcentrifuge tube, then stained with SYTO 9 stain at a final concentration of 5 μM, and incubated for 5 min before AFC sampling. Hoechst 33342 dye (NucBlue, Thermo Fisher Scientific, Eugene, Oreg., USA) and a SYTO 9/propidium iodide (PI) combination (Thermo Fisher Scientific) were used in a series of replicate experiments.
The acoustic flow cytometer employed was Attune acoustic flow cytometer (Thermo Fisher Scientific), having installed therein a 488 nm blue laser with a 530/30 nm filter on the photomultiplier tube for measuring fluorescence of cells assayed. Alternatively, the Attune NxT acoustic flow cytometer (Thermo Fisher Scientific) can be employed. AFC was calibrated at the beginning of each acquisition session using fluorescently labelled size calibration beads, in accordance with the manufacturer's instructions (ThermoFisher Scientific). The AFC settings were as follows: Forward Scatter (FSC) voltage 3100, FSC threshold 4×1000 AND, blue laser 1 (BL1—530/30 nm) voltage 1900, BL1 threshold 1×1000 AND, high sensitivity, flow rate 25 μL/minute, and an acquisition volume of 125 μL. Acquisition was halted after either collection of 20,000 events across all gates, or after 3 minutes, with each sample acquired in technical triplicate.
Collected data was exported in the FCS 3.0 file format and analysed in Flow v10.0 (FlowJo LLC, Ashland, Oreg., USA) by a single user, blinded to the MIC results by BMD (MICBMD).
Subsequent to quantitative MICFAST determination, the acoustic flow cytometer data were re-analysed in silico to produce a limited sub-set for qualitative susceptibility determination. The six antibiotic dilutions (0 mg/L, 0.25 mg/L, 1 mg/L, 2 mg/L, 4 mg/L and 16 mg/L) most relevant to qualitative susceptibility assessment were used. In silico analysis was restricted to the first technical triplicate of each recorded sample. Gating strategies remained consistent, with the addition of a gate restricting analysis to only those events recorded in the first 60 seconds of acquisition.

Staphylococcus aureus [3] = test: Broth microdilution (BMD) MIC of Staphylococcus aureus isolates; type: cell-based
Source text: The acoustic flow cytometry assisted method of the present invention was employed essentially as described in the previous working examples to determine susceptibility of Staphylococcus aureus to both cefoxitin and oxacillin. Susceptibility classification into S/NS and quantitative MIC values obtained using the acoustic flow cytometry assisted method were compared to results obtained using the conventional broth microdilution (BMD) method. Results are shown in Table 4 (Panels A and B) below and in FIGS. 9-12.

Staphylococcus aureus [4] = test: Acoustic flow cytometry-assisted susceptibility test (FAST) of Staphylococcus aureus isolates; type: cell-based; set-up: MIC dilution at which susceptibility-associated signature is observed by AFC: unit not given beside the values
Experimental: The material and methods utilized are briefly outlined herein below. The method used was similar to that outlined in the earlier examples albeit adjusted to allow for 3 hour incubation of Staphylococcus aureus to account for longer doubling times of Staphylococcus aureus relative to K. pneumoniae used in the previous examples.
Events were acquired by forward scatter and BL1 (515 nm-545 nm) using the Attune with voltages and thresholding set as follows: Forward Scatter Voltage: 3050; Forward Scatter Threshold: 3×1000 AND; Side Scatter Voltage: 2950; Side Scatter Threshold: IGNORE; BL1 Voltage: 1500; BL1 Threshold: 1×1000 AND.
Nine mL of MHB was aliquoted into twelve, 50 mL Falcon tubes. Each tube was labelled with the required final test concentration of antibiotic. […] Tubes were transferred to a 35° C. incubator to pre-warm.
One 1 mL of the overnight bacterial suspension was transferred into a 1.5 mL microcentrifuge tube and centrifuge at 7,800×g for about 5 minutes. The supernatant was discarded, and the pellet re-suspended in 1 mL of 0.1 μm filtered HBSS. This step was optionally repeat.
About 900 μL of HBSS was dispended into three 1.5 mL tubes—two clear tubes and one amber tube. About 100 μL of the bacterial suspension was inoculated into the first tube (clear) and serially dilute to reach 1:1000 by the third tube (amber). About 1 μl of SYTO 9 (5 μM final concentration) was added to the third tube. The dye was incubated, protected from light, for at least 5 minutes (individual sample types were optionally required with longer incubations) and then the Stained Control on the Attune acoustic flow cytometer instrument was read
The event density (events/μL) from your stained control aliquots was used to calculate the inoculum volume required to produce a 5.5×10^5 bacteria mL-1 in 10 mL of MHB. For example, (400 events/A)/(10 mL×550000)=7.3 μL, rounded up to the closest 10 μL.
The required volume of bacterial suspension was added from the overnight culture into each 50 ml tube with 9 ml of preheated MHB. Optionally incubate with shaking and protected from light, at 100 RPM at 35° C. for 60 minutes.
MHB (0.1 μm filtered) was used to dilute the antibiotics in this preparation. About one aliquot of antibiotic was removed from the −20° C. freezer and equilibrated to room temperature by ambient heat exchange, and diluted to reach a range of working stock concentrations that were are ten times the desired test concentrations.
Once the 60-minute incubation of bacterial suspension was complete, about 1 mL of 10× antibiotic stocks were added to tubes containing bacterial suspensions to reach final desired test concentrations (1 ml antibiotic and total volume 10 ml). The 50 mL tubes were returned to the incubator and incubated, by shaking at 100 RPM at 35° C., for a further 3 hours.
After 3 hours, about 1 mL suspension was harvested from each tube and transferred to a 1.5 mL clear microcentrifuge tube (marked with the corresponding antibiotic concentration), then centrifuge at 7,800×g for 5 minutes. The supernatant discarded and the pellet resuspended in 1 mL of 0.1 μm filtered HBSS. This wash step was optionally repeated.
Using the computer connected to the Attune, new samples were created ready for the collection of data. That the following parameters were set: Sensitivity: High Sensitivity; Flow Rate: 25 μL/minute; Acquisition Volume: 125 μL; Events Collected: No less than 20,000 from all gates, Time: 1 minute.
About 899 μL HBSS was dispensed into one 1.5 mL amber tube per sample. About 100 μL of suspension per tube was added to achieve a 1 in 10 dilution. About 1 μl of SYTO 9 was added to each tube and the tube vortexed for no more than 2 seconds (over vortexing can lead to bacterial clustering and/or attachment to tube walls).
Samples were placed on the SIP and acquired, in technical triplicate, as per the parameters outlined above. […]

[5] = K. pneumoniae ATCC 700603 (carbapenem susceptible control)
[6] = K. pneumoniae ATCC BAA1705 (carbapenem resistant control)
[7] = S. aureus isolate ATCC 29213, MSSA
[8] = S. aureus isolate W0096111, MSSA
[9] = S. aureus isolate W0226111, MSSA
[10] = S. aureus isolate W0236111, MSSA
[11] = S. aureus isolate W0296111, MSSA
[12] = S. aureus isolate W0816111, MSSA
[13] = S. aureus isolate W0866111, MRSA
[14] = S. aureus isolate W6496111, MSSA
[15] = S. aureus isolate W9196111, MSSA
[16] = S. aureus isolate W9346111, MRSA
[17] = S. aureus isolate W . . . 6111, MRSA
[18] = S. aureus isolate WACC 98, MRSA

C[C@@H](O)[C@H]1C(=O)N2C(C(=O)O)=C(S[C@@H]3CN[C@H](C(=O)Nc4cccc(C(=O)O)c4)C3)[C@H](C)[C@H]12 [Analytical Ertapenem, ertapenem]
MICBMD (Klebsiella isolates [1]; [5]): ≤0.25
MICBMD (Klebsiella isolates [1]; [6]): >16
MICFAST (Klebsiella isolates [2]; [5]): ≤0.25
MICFAST (Klebsiella isolates [2]; [6]): >16

C[C@@H](O)[C@H]1C(=O)N2C(C(=O)O)=C(SCCN=CN)C[C@H]12 [Analytical Imipenem, imipenem]
MICBMD (Klebsiella isolates [1]; [5]): 2
MICBMD (Klebsiella isolates [1]; [6]): >16
MICFAST (Klebsiella isolates [2]; [5]): 1
MICFAST (Klebsiella isolates [2]; [6]): >16

CO[C@@]1(NC(=O)Cc2cccs2)C(=O)N2C(C(=O)O)=C(COC(N)=O)CS[C@@H]21 [Cefoxitin, cefoxitin]
MIC (BMD) (Staphylococcus aureus [3]; [7]): 4 µg/mL
MIC (BMD) (Staphylococcus aureus [3]; [8]): 2 µg/mL
MIC (BMD) (Staphylococcus aureus [3]; [9]): 2 µg/mL
MIC (BMD) (Staphylococcus aureus [3]; [10]): 2 µg/mL
MIC (BMD) (Staphylococcus aureus [3]; [11]): 4 µg/mL
MIC (BMD) (Staphylococcus aureus [3]; [12]): 2 µg/mL
MIC (BMD) (Staphylococcus aureus [3]; [13]): 32 µg/mL
MIC (BMD) (Staphylococcus aureus [3]; [14]): 4 µg/mL
MIC (BMD) (Staphylococcus aureus [3]; [15]): 2 µg/mL
MIC (BMD) (Staphylococcus aureus [3]; [16]): 32 µg/mL
MIC (BMD) (Staphylococcus aureus [3]; [17]): 16 µg/mL
MIC (BMD) (Staphylococcus aureus [3]; [18]): 128 µg/mL
MIC dilution at which susceptibility-associated signature is observed by AFC (Staphylococcus aureus [4]; S. aureus ATCC 29213): 4
MIC dilution at which susceptibility-associated signature is observed by AFC (Staphylococcus aureus [4]; S. aureus WACC 98): 128
MIC (FAST) (Staphylococcus aureus [4]; [7]): 2 µg/mL (≈ 4.68 µM)
MIC (FAST) (Staphylococcus aureus [4]; [8]): 4 µg/mL (≈ 9.36 µM)
MIC (FAST) (Staphylococcus aureus [4]; [9]): 2 µg/mL (≈ 4.68 µM)
MIC (FAST) (Staphylococcus aureus [4]; [10]): 4 µg/mL (≈ 9.36 µM)
MIC (FAST) (Staphylococcus aureus [4]; [11]): 4 µg/mL (≈ 9.36 µM)
MIC (FAST) (Staphylococcus aureus [4]; [12]): 2 µg/mL (≈ 4.68 µM)
MIC (FAST) (Staphylococcus aureus [4]; [13]): 16 µg/mL (≈ 37.4 µM)
MIC (FAST) (Staphylococcus aureus [4]; [14]): 4 µg/mL (≈ 9.36 µM)
MIC (FAST) (Staphylococcus aureus [4]; [15]): 4 µg/mL (≈ 9.36 µM)
MIC (FAST) (Staphylococcus aureus [4]; [16]): 32 µg/mL (≈ 74.9 µM)
MIC (FAST) (Staphylococcus aureus [4]; [17]): 16 µg/mL (≈ 37.4 µM)
MIC (FAST) (Staphylococcus aureus [4]; [18]): 64 µg/mL (≈ 150 µM)
